PubChem BioAssay (NCI)
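1) Cells in 96-well plates. 2) Compound, 48 h, 5 concentrations. 3) Linear interpolation between surrounding doses. 4) Unreached endpoint = highest concentration. Definition used: TGI = concentration required for complete inhibition of growth.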 *1 amine or outer side, *2 acyl side, *3 side chain or, on linkers, in order; H or OH if unused. Where a SMILES comes first, the peptide text is derived from it. [ ]: non-standard residue; d: D form. The star is where a group is joined. ξ: configuration not given here. X53 = CC(C)C[C@H](N[*:1])C1=N[C@H](C(=O)[*:2])CS1; Ile(3ξ) = CCC(C)[C@H](N)C(=O)O; Allyl(1,1-Me2) = C=CC(C)(C)*

Columns and labels:
Test in all cases: NCI-60 cell line screen, 48 h
[1] = test system: 786-0 renal
[2] = test system: A498 renal
[3] = test system: A549 NSCLC
[4] = test system: ACHN renal
[5] = test system: BT-549 breast
[6] = test system: CAKI-1 renal
[7] = test system: CCRF-CEM leukemia
[8] = test system: COLO 205 colon
[9] = test system: DU-145 prostate
[10] = test system: EKVX NSCLC
[11] = test system: HCC-2998 colon
[12] = test system: HCT-116 colon
[13] = test system: HCT-15 colon
[14] = test system: HL-60(TB) leukemia
[15] = test system: HOP-62 NSCLC
[16] = test system: HOP-92 NSCLC
[17] = test system: HS 578T breast
[18] = test system: HT29 colon
[19] = test system: IGROV1 ovarian
[20] = test system: K-562 leukemia
[21] = test system: KM12 colon
[22] = test system: LOX IMVI melanoma
[23] = test system: M14 melanoma
[24] = test system: MALME-3M melanoma
[25] = test system: MCF7 breast
[26] = test system: MDA-MB-231 breast
[27] = test system: MDA-MB-435
[28] = test system: MDA-N
[29] = test system: MOLT-4 leukemia
[30] = test system: NCI-H226 lung
[31] = test system: NCI-H23 lung
[32] = test system: NCI-H460 lung
[33] = test system: NCI-H522 lung
[34] = test system: NCI/ADR-RES ovarian
[35] = test system: OVCAR-3 ovarian
[36] = test system: OVCAR-4 ovarian
[37] = test system: OVCAR-5 ovarian
[38] = test system: OVCAR-8 ovarian
[39] = test system: PC-3 prostate
[40] = test system: RPMI-8226 leukemia
[41] = test system: RXF 393 renal
[42] = test system: SF-268 CNS
[43] = test system: SF-295 CNS
[44] = test system: SF-539 CNS
[45] = test system: SK-MEL-2 melanoma
[46] = test system: SK-MEL-28 melanoma
[47] = test system: SK-MEL-5 melanoma
[48] = test system: SK-OV-3 ovarian
[49] = test system: SN12C renal
[50] = test system: SNB-19 CNS
[51] = test system: SNB-75 CNS
[52] = test system: SR leukemia
[53] = test system: SW-620 colon
[54] = test system: T-47D breast
[55] = test system: TK-10 renal
[56] = test system: U251 CNS
[57] = test system: UACC-257 melanoma
[58] = test system: UACC-62 melanoma
[59] = test system: UO-31 renal

O=C1c2ccccc2C(=O)N1[C@@H](Cc1ccccc1)C(=O)n1cccc1CO
TGI [1]: > 100 µM
TGI [2]: > 100 µM
TGI [3]: > 100 µM
TGI [4]: > 100 µM
TGI [5]: > 100 µM
TGI [6]: > 100 µM
TGI [7]: > 100 µM
TGI [8]: > 100 µM
TGI [9]: > 100 µM
TGI [10]: > 100 µM
TGI [11]: > 100 µM
TGI [12]: > 100 µM
TGI [13]: > 100 µM
TGI [14]: > 100 µM
TGI [15]: > 100 µM
TGI [16]: > 100 µM
TGI [17]: > 100 µM
TGI [18]: > 100 µM
TGI [19]: > 100 µM
TGI [20]: > 100 µM
TGI [21]: > 100 µM
TGI [22]: > 100 µM
TGI [23]: > 100 µM
TGI [24]: > 100 µM
TGI [25]: > 100 µM
TGI [26]: > 100 µM
TGI [27]: > 100 µM
TGI [28]: > 100 µM
TGI [29]: > 100 µM
TGI [30]: > 100 µM
TGI [31]: > 100 µM
TGI [32]: > 100 µM
TGI [33]: > 100 µM
TGI [34]: > 100 µM
TGI [35]: > 100 µM
TGI [36]: > 100 µM
TGI [37]: > 100 µM
TGI [38]: > 100 µM
TGI [39]: > 100 µM
TGI [40]: > 100 µM
TGI [41]: 56.6 µM
TGI [42]: > 100 µM
TGI [43]: > 100 µM
TGI [44]: > 100 µM
TGI [45]: > 100 µM
TGI [46]: > 100 µM
TGI [47]: > 100 µM
TGI [48]: > 100 µM
TGI [49]: > 100 µM
TGI [50]: > 100 µM
TGI [51]: > 100 µM
TGI [52]: > 100 µM
TGI [53]: > 100 µM
TGI [54]: > 100 µM
TGI [55]: > 100 µM
TGI [56]: > 100 µM
TGI [57]: > 100 µM
TGI [58]: > 100 µM
TGI [59]: > 100 µM

Clc1ccc(Cc2nc3cc(Cl)c(Cl)cc3n2CC2CCCN3CCCCC23)cc1Cl (stereo unspecified)
TGI [1]: 12.7 µM
TGI [2]: 21 µM
TGI [3]: 20 µM
TGI [4]: 16.1 µM
TGI [5]: 21.4 µM
TGI [6]: 15.9 µM
TGI [8]: 4.83 µM
TGI [9]: 19.4 µM
TGI [10]: 11.1 µM
TGI [11]: 3.45 µM
TGI [12]: 10.7 µM
TGI [13]: 17.1 µM
TGI [14]: 5.93 µM
TGI [15]: 24.5 µM
TGI [16]: 22.8 µM
TGI [17]: 19.2 µM
TGI [18]: 6.85 µM
TGI [19]: 15.4 µM
TGI [20]: > 100 µM
TGI [21]: 7.51 µM
TGI [22]: 6 µM
TGI [23]: 4.04 µM
TGI [24]: 3.91 µM
TGI [25]: 7.15 µM
TGI [26]: 7.84 µM
TGI [27]: 17.2 µM
TGI [28]: 16.5 µM
TGI [29]: > 100 µM
TGI [30]: 26.8 µM
TGI [32]: 9.75 µM
TGI [33]: 3.54 µM
TGI [34]: 17.2 µM
TGI [35]: 33.2 µM
TGI [36]: 20.3 µM
TGI [37]: 12.3 µM
TGI [38]: 22.6 µM
TGI [39]: 14.1 µM
TGI [40]: > 100 µM
TGI [41]: 30.7 µM
TGI [42]: 15.8 µM
TGI [43]: 10.5 µM
TGI [44]: 4.17 µM
TGI [45]: 19.7 µM
TGI [46]: 10.7 µM
TGI [47]: 4.38 µM
TGI [48]: 13.4 µM
TGI [49]: 15.8 µM
TGI [50]: 8.2 µM
TGI [51]: 12 µM
TGI [52]: 7.6 µM
TGI [53]: 4.9 µM
TGI [54]: 33.4 µM
TGI [55]: 19.5 µM
TGI [56]: 13.7 µM
TGI [57]: 10.6 µM
TGI [58]: 5.42 µM
TGI [59]: 1.25 µM

C=CC(C)(C)OC[C@@H]1NC(=O)CNC(=O)[C@@H]2CCCN2C(=O)[C@H](C(C)CC)NC(=O)[C@@H]2CSC(=N2)[C@H](CC(C)C)NC1=O (stereo partly specified) (cyclo(GS(Allyl(1,1-Me2))[X53][Ile(3ξ)]P))
TGI [1]: > 100 µM
TGI [2]: > 100 µM
TGI [3]: > 100 µM
TGI [4]: > 100 µM
TGI [5]: > 100 µM
TGI [6]: > 100 µM
TGI [7]: > 100 µM
TGI [8]: > 100 µM
TGI [9]: > 100 µM
TGI [10]: > 100 µM
TGI [11]: > 100 µM
TGI [12]: > 100 µM
TGI [13]: > 100 µM
TGI [14]: 64.4 µM
TGI [15]: > 100 µM
TGI [16]: > 100 µM
TGI [17]: > 100 µM
TGI [18]: > 100 µM
TGI [19]: > 100 µM
TGI [20]: > 100 µM
TGI [21]: > 100 µM
TGI [22]: > 100 µM
TGI [23]: > 100 µM
TGI [24]: > 100 µM
TGI [25]: > 100 µM
TGI [26]: > 100 µM
TGI [27]: > 100 µM
TGI [28]: > 100 µM
TGI [29]: 76.1 µM
TGI [30]: > 100 µM
TGI [31]: > 100 µM
TGI [32]: > 100 µM
TGI [33]: > 100 µM
TGI [34]: > 100 µM
TGI [35]: > 100 µM
TGI [36]: > 100 µM
TGI [37]: > 100 µM
TGI [38]: > 100 µM
TGI [39]: > 100 µM
TGI [40]: 94.1 µM
TGI [41]: > 100 µM
TGI [42]: > 100 µM
TGI [43]: > 100 µM
TGI [44]: > 100 µM
TGI [45]: > 100 µM
TGI [47]: > 100 µM
TGI [48]: > 100 µM
TGI [49]: > 100 µM
TGI [50]: > 100 µM
TGI [51]: > 100 µM
TGI [52]: > 100 µM
TGI [54]: > 100 µM
TGI [55]: > 100 µM
TGI [56]: > 100 µM
TGI [57]: > 100 µM
TGI [58]: > 100 µM
TGI [59]: > 100 µM

C1CSC2=C(S1)SC1=C(S2)SC(=C2SC3=C(SC4=C(SCCS4)S3)S2)S1
TGI [1]: > 100 µM
TGI [2]: > 100 µM
TGI [3]: > 100 µM
TGI [4]: > 100 µM
TGI [5]: > 100 µM
TGI [6]: > 100 µM
TGI [7]: > 100 µM
TGI [8]: > 100 µM
TGI [9]: > 100 µM
TGI [10]: > 100 µM
TGI [11]: > 100 µM
TGI [12]: > 100 µM
TGI [13]: > 100 µM
TGI [14]: > 100 µM
TGI [15]: > 100 µM
TGI [16]: > 100 µM
TGI [17]: > 100 µM
TGI [18]: > 100 µM
TGI [19]: > 100 µM
TGI [20]: > 100 µM
TGI [21]: > 100 µM
TGI [23]: > 100 µM
TGI [24]: > 100 µM
TGI [25]: > 100 µM
TGI [26]: > 100 µM
TGI [27]: > 100 µM
TGI [28]: > 100 µM
TGI [29]: > 100 µM
TGI [30]: > 100 µM
TGI [31]: > 100 µM
TGI [32]: > 100 µM
TGI [33]: > 100 µM
TGI [34]: > 100 µM
TGI [35]: > 100 µM
TGI [36]: > 100 µM
TGI [37]: > 100 µM
TGI [38]: > 100 µM
TGI [39]: > 100 µM
TGI [40]: > 100 µM
TGI [41]: > 100 µM
TGI [42]: > 100 µM
TGI [43]: > 100 µM
TGI [44]: > 100 µM
TGI [45]: > 100 µM
TGI [46]: > 100 µM
TGI [47]: > 100 µM
TGI [48]: > 100 µM
TGI [49]: > 100 µM
TGI [50]: > 100 µM
TGI [51]: > 100 µM
TGI [52]: > 100 µM
TGI [53]: > 100 µM
TGI [54]: > 100 µM
TGI [55]: > 100 µM
TGI [56]: > 100 µM
TGI [57]: > 100 µM
TGI [58]: > 100 µM
TGI [59]: > 100 µM
